{"source": "patent EP4595964A1", "about": "“TREATMENT OF GM1 GANGLIOSIDOSIS” (Azafaros B.V., priority 2024, dated 2025)", "key": {"[1]": {"test_system": "control or GLB1-null cerebral organoids", "experiment": "Cellularity test in cerebral organoids", "type": "cell-based, human", "settings": "any timepoint, 5 nM, 500 nM"}, "[2]": {"test_system": "GLB1-null Ex 2-3 cerebral organoids", "type": "cell-based, human"}, "[3]": {"test_system": "GLB1-null Ex 2-3 cerebral organoids", "experiment": "Neuronal survival and health in the human brain organoid model of GM1 gangliosidosis", "type": "cell-based", "settings": "5 nM, 500 nM; concomitant with the GM1 reduction"}}, "data": [{"smiles": "OC[C@H]1[C@@H](O)[C@H](O)[C@@H](O)CN1CCCCCOCc1ccc(-c2ccccc2)c(F)c1", "note": "[nizubaglustat]", "values": [{"measurement": "cellularity", "setting": "[1]", "result": "did not reduce"}, {"measurement": "GM1 accumulation", "setting": "[2]; 5 nM, 500 nM, weeks 18, 20 and 24, dose-dependent fashion, GLB1-null Ex 2-3 cerebral organoids", "result": "significantly reduced"}, {"measurement": "level of GLB1 in the EX 2-3 cell line", "setting": "[2]; Week 24, representative images (Figure 4 top panel), green stain", "result": "significantly reduces"}, {"measurement": "reduced the level of GM1 ganglioside", "setting": "[2]; after 24 weeks of regular (2-3 times per week) administration", "result": "at least 2 fold"}, {"measurement": "neuronal survival and health", "setting": "[3]", "result": "increased"}]}]}
